In patent US7504519B2, “Derivatives of pyrazoline, procedure for obtaining them and use thereof as therapeutic agents” (Laboratorios Del Dr. Esteve, S.A., priority 2004, dated 2009):
Structures can show the parent of a compound that is named as a salt.

Columns and labels:
rats = experiment: Analgesia test on rats (carrageenan subplantar injection, thermal stimulus, Hargreaves method); assay type: in vivo; details: analgesic activity, rat, 2.5 mg/kg i.v., compound given 3 h after carrageenan; for % activity At 30 min.: 30 min after administration; for % activity At 120 min.: 120 min after administration
Procedure: Biological Activity Analgesia Test on Rats
The analgesic activity of the compounds of the invention is tested as described in the publication by K. Hargreaves et al., Pain, 32. 77-88. (1988).
Briefly, the rats are transferred to the experimentation laboratory, where they remain in groups of five in Makrolon cages with barred floors to prevent coprophagy. At the start of the experiment, water and food were removed and animals weighed and labelled appropriately.
Each rat receives by subplantar injection 0.1 ml of sterile saline solution in the rear left leg, followed by 0.1 ml 2% (weight/volume) carrageenan suspension in sterile saline solution in the rear right leg.
Three hours following the subplantar injections of carrageenan and vehicle, each rat was intravenously administered with compounds to be tested, dissolved in sterile saline serum, at a dose of 1 ml per kg of body weight. Then after administration of compounds, analgesic activity values were readed. For this purpose, rats were transferred to the methacrylate chambers of an analgesimeter with a glass floor. Once the period of acclimatisation in the chambers had elapsed (i.e., after 5 minutes), an infrared radiation lamp capable of producing thermal stimulation was placed under the rats' legs. Readings of analgesic activity were taken at 15, 30, 60 and 120 minutes following administration of the products or their vehicle.
The thermal stimulus, calibrated beforehand to 10 amperes, is applied to each of the rear legs at intervals of at least 1 minute. The response of the rats to the pain consists in raising the leg, thus avoiding contact with the floor.

Row | Compound | % activity At 30 min. (rats) | % activity At 120 min. (rats) | melting point
1 | CCCCOC(=O)NS(=O)(=O)c1ccc(C2CC(C(F)(F)F)=NN2c2ccccc2)cc1 (stereo not shown) [Compound 37, N-Butoxycarbonyl-4-(4,5-dihydro-1-phenyl-3-trifluoromethyl-1H-pyrazole-5-yl)benzenesulphonamide] | 68% | 75% | –
2 | COC(=O)c1ccc(NS(=O)(=O)c2ccc(N3N=C(C(F)(F)F)CC3c3ccccc3)cc2)cc1 (stereo not shown) [Compound 25, 4-[4-(4,5-dihydro-5-phenyl-3-trifluoromethyl-pyrazole-1-yl)-benzenesulphonylamine] benzoic acid methylic ester] | 67% | 66% | –
3 | O=C(NS(=O)(=O)c1ccc(N2N=C(C(F)(F)F)CC2c2ccccc2)cc1)c1ccc(C(F)(F)F)cc1 (stereo not shown) (as salt: sodium) [Compound 22, N-(4-Trifluoromethylbenzoyl)-4-(4,5-dihydro-5-phenyl-3-trifluoromethyl-pyrazole-1-yl)-benzenesulphonamide] | – | – | > 280 °C
4 | N-(4-Trifluoromethyl)benzoil-4-(4,5-dihydro-1-phenyl-3-trifluoromethyl-1H-pyrazole-5-yl)benzenesulphonamide [Compound 39] | 92% | 57% | –
5 | CCC(=O)NS(=O)(=O)c1ccc(C2CC(C(F)(F)F)=NN2c2ccccc2)cc1 (stereo not shown) [Compound 32, N-Propionyl-4-(4,5-dihydro-1-phenyl-3-trifluoromethyl-1H-pyrazole-5-yl)benzenesulphonamide] | 72% | 51% | –
6 | CCC(=O)NS(=O)(=O)c1ccc(C2CC(C(F)(F)F)=NN2c2ccccc2)cc1 (stereo not shown) (as salt: sodium) [Compound 32, N-Propionyl-4-(4,5-dihydro-1-phenyl-3-trifluoromethyl-1H-pyrazole-5-yl)benzenesulphonamide] | – | – | > 280 °C
7 | N-Ethyloxicarbonyl-4-(4,5-dihydro-5-phenyl-3-trifluoromethyl-pyrazole-1-yl)-benzenesulphonamide [Compound 4] | 78% | 48% | –
8 | COC(=O)NS(=O)(=O)c1ccc(C2CC(C(F)(F)F)=NN2c2ccccc2)cc1 (stereo not shown) [Compound 31, N-Methoxycarbonyl-4-(4,5-dihydro-1-phenyl-3-trifluoromethyl-1H-pyrazole-5-yl)benzenesulphonamide] | 76% | 49% | –
9 | O=C(NS(=O)(=O)c1ccc(N2N=C(C(F)(F)F)CC2c2ccccc2)cc1)c1ccc(C(F)(F)F)cc1 (stereo not shown) [Compound 22, N-(4-Trifluoromethylbenzoyl)-4-(4,5-dihydro-5-phenyl-3-trifluoromethyl-pyrazole-1-yl)-benzenesulphonamide] | 72% | 76% | –
10 | O=C(CO)NS(=O)(=O)c1ccc(N2N=C(C(F)(F)F)CC2c2ccccc2)cc1 (stereo not shown) [Compound 3, N-(2-Hydroxyacetyl)-4-(4,5-dihydro-5-phenyl-3-trifluoromethyl-pyrazole-1-yl)-benzenesulphonamide] | 41% | 40% | –
11 | CCCCOC(=O)NS(=O)(=O)c1ccc(C2CC(C(F)(F)F)=NN2c2ccccc2)cc1 (stereo not shown) (as salt: sodium) [Compound 37, N-Butoxycarbonyl-4-(4,5-dihydro-1-phenyl-3-trifluoromethyl-1H-pyrazole-5-yl)benzenesulphonamide] | – | – | 223 to 230 °C
